Consider 11 cell lines from the supplement of paper PMC10307832.

What all share (assay): relative viability (nuclei count vs DMSO), 5 days (fraction); higher = more cells survive
Compound in assay [1]: CCN1CCC(CC1)N2C=C(N=N2)CNC3=CC4=C(C(=CN=C4C(=C3)Cl)C#N)NC5=CC(=C(C=C5)F)Cl [KIN001-266] + Nc1nc2[nH]cc(CCc3ccc(C(=O)N[C@@H](CCC(=O)O)C(=O)O)cc3)c2c(=O)[nH]1 [Pemetrexed] (partner 0.2 µM)
In a few lines:
(§1)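 Each reported value is a median over duplicate plates. It expresses relative viability: treated-well nuclei count divided by vehicle-well nuclei count. Lung cancer cell lines in 1536-well plates were dosed by pin tool a day after seeding, alone with one drug or with a fixed anchor-drug dose plus five library-drug doses (not always all listed) in √10 steps, and nuclei were counted after 5 days.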

Compound in assay [2]: CCN1CCC(CC1)N2C=C(N=N2)CNC3=CC4=C(C(=CN=C4C(=C3)Cl)C#N)NC5=CC(=C(C=C5)F)Cl [KIN001-266] + Cc1nc(NC(=O)N2CCC[C@H]2C(N)=O)sc1-c1ccnc(C(C)(C)C(F)(F)F)c1 [Alpelisib] (partner 2 µM)
A digest of the protocol:
as §1

Compound in assay [3]: CCN1CCC(CC1)N2C=C(N=N2)CNC3=CC4=C(C(=CN=C4C(=C3)Cl)C#N)NC5=CC(=C(C=C5)F)Cl [KIN001-266] + O=C(c1cc(Cc2n[nH]c(=O)c3ccccc23)ccc1F)N1CCN(C(=O)C2CC2)CC1 [Olaparib] (partner 8 µM)
In a few lines:
as §1

Compound in assay [4]: CCN1CCC(CC1)N2C=C(N=N2)CNC3=CC4=C(C(=CN=C4C(=C3)Cl)C#N)NC5=CC(=C(C=C5)F)Cl [KIN001-266] + CC(C)C[C@H](NC(=O)[C@H](Cc1ccccc1)NC(=O)c1cnccn1)B(O)O [Bortezomib] (partner 0.002 µM)
In a few lines: as §1

As to NCI-H1395, the relative viability in assay [1] (first compound 0.08 µM) came out at 0.871; in assay [1] (first compound 0.253 µM) it was 1.02; in assay [1] (first compound 0.8 µM), 0.964; in assay [1] (first compound 2.53 µM), 0.784; in assay [1] (first compound 8 µM), 0.847; in assay [2] (first compound 0.08 µM) it was 1.07. Further, the relative viability in assay [2] (first compound 0.253 µM) turned out to be 1.06; in assay [2] (first compound 0.8 µM), 1.23; in assay [2] (first compound 2.53 µM), 0.955; in assay [2] (first compound 8 µM) it was 1.05; in assay [3] (first compound 0.08 µM) it was 0.478; in assay [3] (first compound 0.253 µM) it was 0.441. The relative viability in assay [3] (first compound 0.8 µM) was determined as 0.447; in assay [3] (first compound 2.53 µM), 0.429; in assay [3] (first compound 8 µM) it was 0.427.

With NCI-H1563, the relative viability in assay [4] (first compound 0.08 µM) was 0.951; in assay [4] (first compound 0.253 µM), 0.982; in assay [4] (first compound 0.8 µM), 0.846; in assay [4] (first compound 2.53 µM), 0.855; in assay [4] (first compound 8 µM) it was 0.809; in assay [1] (first compound 0.08 µM) it was 0.885. Moreover, the relative viability worked out at 0.714 in assay [1] (first compound 0.253 µM); 0.865 in assay [1] (first compound 0.8 µM); 0.793 in assay [1] (first compound 2.53 µM); 0.914 in assay [1] (first compound 8 µM); 0.996 in assay [2] (first compound 0.08 µM); 0.904 in assay [2] (first compound 0.253 µM). Moreover, the results for the relative viability in assay [2] (first compound 0.8 µM), in assay [2] (first compound 2.53 µM) and in assay [2] (first compound 8 µM) were 0.92, 0.906 and 0.897, respectively.

Take NCI-H1648: the relative viability is 0.641 in assay [1] (first compound 0.08 µM); 0.791 in assay [1] (first compound 0.253 µM); 0.66 in assay [1] (first compound 0.8 µM); 0.626 in assay [1] (first compound 2.53 µM); 0.758 in assay [1] (first compound 8 µM); 1 in assay [3] (first compound 0.08 µM). The relative viability in assay [3] (first compound 0.253 µM) was 0.711; in assay [3] (first compound 0.8 µM) it was 0.816; in assay [3] (first compound 2.53 µM), 0.55; in assay [3] (first compound 8 µM) it was 0.996.

With NCI-H1650, the relative viability in assay [4] (first compound 0.08 µM) is 0.241; in assay [4] (first compound 0.253 µM), 0.203; in assay [4] (first compound 0.8 µM), 0.191; in assay [4] (first compound 2.53 µM), 0.214; in assay [4] (first compound 8 µM), 0.19; in assay [1] (first compound 0.08 µM), 0.371. Further, the relative viability is 0.409 in assay [1] (first compound 0.253 µM); 0.412 in assay [1] (first compound 0.8 µM); 0.338 in assay [1] (first compound 2.53 µM); 0.36 in assay [1] (first compound 8 µM); 0.708 in assay [3] (first compound 0.08 µM); 0.751 in assay [3] (first compound 0.253 µM). Also, the relative viability in assay [3] (first compound 0.8 µM) amounted to 0.655; in assay [3] (first compound 2.53 µM) it was 0.587; in assay [3] (first compound 8 µM), 0.437.

For the cell line NCI-H1703, the relative viability in assay [4] (first compound 0.08 µM) amounted to 0.378; in assay [4] (first compound 0.253 µM) it was 0.317; in assay [4] (first compound 0.8 µM), 0.296; in assay [4] (first compound 2.53 µM) it was 0.273; in assay [4] (first compound 8 µM) it was 0.291; in assay [2] (first compound 0.08 µM), 0.419. Moreover, the relative viability in assay [2] (first compound 0.253 µM) is 0.307; in assay [2] (first compound 0.8 µM), 0.31; in assay [2] (first compound 2.53 µM), 0.289; in assay [2] (first compound 8 µM), 0.325; in assay [3] (first compound 0.08 µM), 0.451; in assay [3] (first compound 0.253 µM) it was 0.386. Besides, the relative viability in assay [3] (first compound 0.8 µM) was found to be 0.435; in assay [3] (first compound 2.53 µM), 0.391; in assay [3] (first compound 8 µM) it was 0.401.

With NCI-H1793, the relative viability in assay [1] (first compound 0.08 µM) turned out to be 0.895; in assay [1] (first compound 0.253 µM) it was 0.925; in assay [1] (first compound 2.53 µM), 0.771; in assay [1] (first compound 8 µM), 0.621; in assay [2] (first compound 0.08 µM), 0.829; in assay [2] (first compound 0.253 µM), 0.624. Further, the relative viability in assay [2] (first compound 0.8 µM) was found to be 0.822; in assay [2] (first compound 2.53 µM) it was 0.897; in assay [2] (first compound 8 µM) it was 0.572; in assay [3] (first compound 0.08 µM), 0.864; in assay [3] (first compound 0.253 µM) it was 0.823; in assay [3] (first compound 2.53 µM) it was 0.923. Also, the relative viability in assay [3] (first compound 8 µM) worked out at 0.711.

Turning to NCI-H1944, the relative viability was 0.616 in assay [1] (first compound 0.08 µM); 0.572 in assay [1] (first compound 0.253 µM); 0.596 in assay [1] (first compound 0.8 µM); 0.664 in assay [1] (first compound 2.53 µM); 0.57 in assay [1] (first compound 8 µM); 0.865 in assay [2] (first compound 0.08 µM). Also, the relative viability in assay [2] (first compound 0.253 µM) came out at 0.813; in assay [2] (first compound 0.8 µM), 0.797; in assay [2] (first compound 2.53 µM) it was 0.801; in assay [2] (first compound 8 µM), 0.852; in assay [3] (first compound 0.08 µM) it was 0.411; in assay [3] (first compound 0.253 µM), 0.403. In addition, the relative viability came out at 0.346 in assay [3] (first compound 0.8 µM), 0.411 in assay [3] (first compound 2.53 µM) and 0.326 in assay [3] (first compound 8 µM).

For NCI-H2170, the relative viability was determined as 0.256 in assay [1] (first compound 0.08 µM); 0.256 in assay [1] (first compound 0.253 µM); 0.248 in assay [1] (first compound 0.8 µM); 0.248 in assay [1] (first compound 2.53 µM); 0.25 in assay [1] (first compound 8 µM); 0.81 in assay [2] (first compound 0.08 µM). The relative viability came out at 0.771 in assay [2] (first compound 0.253 µM); 0.776 in assay [2] (first compound 0.8 µM); 0.734 in assay [2] (first compound 2.53 µM); 0.786 in assay [2] (first compound 8 µM); 0.634 in assay [3] (first compound 0.08 µM); 0.548 in assay [3] (first compound 0.253 µM). In addition, the relative viability in assay [3] (first compound 0.8 µM) stood at 0.541; in assay [3] (first compound 2.53 µM), 0.515; in assay [3] (first compound 8 µM), 0.416.

Consider NCI-H2342, for which the relative viability in assay [1] (first compound 0.08 µM) stood at 0.785; in assay [1] (first compound 0.253 µM) it was 0.738; in assay [1] (first compound 0.8 µM), 0.619; in assay [1] (first compound 2.53 µM) it was 0.705; in assay [1] (first compound 8 µM), 0.91; in assay [3] (first compound 0.08 µM) it was 0.547. Besides, the relative viability in assay [3] (first compound 0.253 µM) turned out to be 0.4; in assay [3] (first compound 0.8 µM), 0.427; in assay [3] (first compound 2.53 µM), 0.407; in assay [3] (first compound 8 µM), 0.419.

SK-MES-1: the relative viability was found to be 0.873 in assay [1] (first compound 0.08 µM); 0.912 in assay [1] (first compound 0.253 µM); 0.903 in assay [1] (first compound 0.8 µM); 0.833 in assay [1] (first compound 2.53 µM); 0.79 in assay [1] (first compound 8 µM); 0.943 in assay [2] (first compound 0.08 µM). Also, the relative viability came to 0.813 in assay [2] (first compound 0.253 µM); 0.845 in assay [2] (first compound 0.8 µM); 0.872 in assay [2] (first compound 2.53 µM); 0.76 in assay [2] (first compound 8 µM); 0.783 in assay [3] (first compound 0.08 µM); 0.651 in assay [3] (first compound 0.253 µM). In addition, the relative viability in assay [3] (first compound 0.8 µM) was 0.73; in assay [3] (first compound 2.53 µM) it was 0.492; in assay [3] (first compound 8 µM) it was 0.492.

SW 900: the relative viability in assay [1] (first compound 0.08 µM) came out at 0.494; in assay [1] (first compound 0.253 µM), 0.496; in assay [1] (first compound 0.8 µM), 0.491; in assay [1] (first compound 2.53 µM), 0.47; in assay [1] (first compound 8 µM) it was 0.43; in assay [3] (first compound 0.08 µM), 0.964. The relative viability in assay [3] (first compound 0.253 µM) amounted to 0.88; in assay [3] (first compound 0.8 µM), 0.877; in assay [3] (first compound 2.53 µM) it was 0.821; in assay [3] (first compound 8 µM), 0.335.
